Entries after “also recorded” stand apart in the source; their conditions may differ.
Tests used:
CGRP receptors = biological target: T1, CGRP receptors (Rattus norvegicus, UniProt Q63118+Q9JJ74); assay: Zinc bis(histidinate)-induced cutaneous vasodilation after CGRP receptor antagonist pre-treatment (LDF); type: in vivo; conditions: rat hind paw; BIBN4096 3 mg/kg i.v. pre-treatment before Zn-bis-His 3, 10 and 30 mg/kg i.v.
T1 construct: from tissue; host or cells: live anaesthetized rat, hind-paw skin vasculature (in vivo)
Description: (§1) Rats were anaesthetized with urethane (2 g/kg i.p.) after light anaesthesia with inhalation of 5% isoflurane. A laser Doppler probe (OxyFlo probe MSP300XP; ADI Blood Flowmeter) was placed on one hind paw (hair removed with depilatory cream). The animal was allowed to stabilize for 30 min to establish baseline parameters. A single i.v. dose of zinc bis(histidinate) was then administered at 3 mg/kg. The haemodynamic and cutaneous blood flow measurements by laser Doppler flow (LDF) were recorded continuously for 15 min. Then, the effects of 10 mg/kg and 30 mg/kg doses of zinc bis(histidinate) were tested.
In order to better understand the effect of zinc bis(histidinate) on cutaneous blood flow, vasodilation mediated by sensory nerves was blocked by pre-treatment of the rat with a CGRP (calcitonin gene-related peptide) receptor antagonist. A dose of 3 mg/kg BIBN4096 (olcegepant, a known CGRP receptor antagonist was administered intravenously by slow infusion over 10 minutes prior to subsequent administration of zinc bis(histidinate) and measurement of cutaneous blood flow by LDF as described in Example 2.

rat mesenteric arteries = assay: Relaxation of isolated rat mesenteric arteries contracted with U46619 (myograph); type: cell-based; conditions: arteries contracted with thromboxane mimetic U46619
Source text: Functional in vitro protocols in isolated arteries. Human internal mammary artery and saphenous vein or a range of vessels from rats and mice (left main or anterior descending coronary arteries [250-400 μm internal diameter, i.d.], second order pulmonary interlobar arteries [300-600 μm i.d.], second or third order mesenteric arteries [200-350 μm i.d.], interlobar renal arteries [250-350 μm i.d.], saphenous arteries or veins [300-600 μm i.d.]), or the thoracic aorta were dissected and placed in ice-cold PSS-A with the following composition (mmol/L, mM): NaCl 119; KCl 4.69; MgSO4·7H2O 1.17; KH2PO4 1.18; glucose 5.5; NaHCO3 25; CaCl2·6H2O 2.5 saturated with carbogen (O2 95%; CO2 5%) at pH 7.4. In addition, rat middle cerebral (250-400 μm i.d.) and basilar (250-450 μm i.d.) arteries were used and for these vessels the PSS-A contained 1.5 mM CaCl2 to minimize the occurrence of spontaneous contractions.
After isolation of vessels, ˜2 mm length segments of arteries were mounted in myograph chambers (Model 610M and 620M; Danish Myo Technology, Denmark) containing PSS-A at 37° C. for isometric force measurement as described previously. Contractile and relaxation responses using rat and mice isolated vessels were recorded with LabChart 7 and a PowerLab 4/30 A/D converter (AD Instruments Pty Ltd, Australia) while those including human isolated vessels were recorded with LabChart 8 (AD Instruments) and Myodaq and Myodata 2.01 (Maastricht University, Maastricht, Netherlands). To normalize the basal conditions, the vessels were passively stretched according to a normalization protocol and adjusted to a diameter setting of 90% of that determined for an equivalent transmural pressure of 100 mmHg (30 mmHg for veins). After allowing the tissues to equilibrate for 30 min, the arteries were exposed to a potassium depolarizing solution (124 mM K^+ replacing Na^+ in PSS; termed KPSS) and noradrenaline (10 μM) for 2 min (chemicals, their source and preparation are provided in the online supplement). A second exposure to KPSS solution (only) was used to provide a reference contraction.
Five structurally dissimilar zinc delivery agents (zinc pyrithione, zinc disulfiram, clioquinol, Zn(DTSM) and zinc bis(histidinate)) were administered to rat mesenteric arteries according to the protocols above and the extent to which the arteries contracted were recorded. Acetylcholine and clioquinol were also administered and contractions recorded.

[1] = tested on: sheep during cardiopulmonary bypass; conditions: cited from earlier work
rat hind paw = assay: Cutaneous blood flow by laser Doppler flow in anaesthetized rat hind paw; type: in vivo; conditions: Zn-bis-His 3, 10 and 30 mg/kg i.v., L-His 67 mg/kg i.v.
Description: For in vivo measurements of cutaneous blood flow, an average of 3 s consecutive values calculated every 5 s were computed by LabChart software and the data were transformed as percentage of baseline (an average of 1.5 min recording before each dose). The area under the curve (AUC) for change from baseline values was calculated in Prism 8 software. MAP, hindquarter flow and conductance were taken immediately before and every 5 min after a single dose of treatment.
as §1

[2] = tested on: ovine model of cardiopulmonary bypass; assay: Ovine cardiopulmonary bypass with intra-operative zinc bis(histidinate) infusion; type: in vivo; conditions: sheep on CPB (2 h); 3, 10 and 30 mg/kg infusion i.v. every 20 min
Source text: Two merino ewes (35-50 kg bodyweight) were housed in individual metabolic cages with access to 5 litres of water and 800 g of oaten chaff daily. The sheep underwent a preparatory surgical procedure under isoflurane anaesthesia for the implantation of a transit-time flow probe around the renal artery for measurement of renal blood flow. Fibre-optic probes were inserted into the cerebral cortex, renal cortex and renal medulla for measurement of tissue perfusion, pO2 and temperature (see Calzavacca et al., 2015, Am J Physiol Regul Integr Comp Physiol 308, R832-839). Catheters were inserted into the renal and jugular veins, carotid artery and bladder. The experiments were undertaken five days later. Intra-operative analgesics and antibiotics were administered as described previously (Lankadeva et al., 2019, Kidney Int 95 1338-1346; Evans et al., 2020, Am J Physiol Regul Integr Comp Physiol 318, R206-R213; Lankadeva et al., 2021, Acta Physiologica doi.org/10.1111/apha.13596, e13596). Mean arterial pressure, renal blood flow, cerebral cortical, renal cortical and renal medullary tissue perfusion, and temperature were continuously recorded across a series of experimental periods. Arterial, mixed venous and renal venous blood samples were collected every 30 min for blood oximetry and biochemistry (ABL systems 625, Copenhagen, Denmark).
During the first 30 minutes, sheep were awake and unrestrained in their home metabolic cage. Anaesthesia was induced with sodium thiopental (15 mg/kg) and after endotracheal intubation, maintained on isoflurane (2.0%-2.5%) via an artificial ventilator prior to cardiopulmonary bypass or via a membrane oxygenator during cardiopulmonary bypass (FiO2: 60%). This FiO2 was chosen because it is standard during cardiac surgery at the inventors affiliated clinical centre. From the onset of anaesthesia, sheep received a maintenance infusion of compound sodium lactate (2 mL/kg/h; Baxter, NSW, Australia) for the entire duration of the experiment. Once stable anaesthesia was attained, a second experimental period (30 minutes) commenced. Cardiopulmonary bypass was then achieved at a target pump flow of 80 mL/kg/min, a target MAP of 65 mmHg, and a target body temperature of 34.5° C. The prefusion circuit was primed with 300-500 mL of blood from a donor animal, 1 g cefazolin (AFT Pharmaceuticals, NSW, Australia), 50 mL mannitol (20% wt/vol Osmitrol, Baxter, NSW, Australia) and 10 000 IU heparin, made up to 1.3 L with compound sodium lactate. Metaraminol (Metaraminol Montrose, Montrose Life Sciences, NSW, Australia) was administered in boluses of ˜0.25 mg (using a 0.5 mg/mL solution) only in cases where increasing pump flow was not sufficient to attain the target mean arterial pressure during cardiopulmonary bypass. Once stable cardiopulmonary bypass was attained, the sheep was maintained for ˜2 hours before starting a zinc bis(histidinate) infusion (18 mg/ml solution made freshly in 0.45% saline solution and filtered). For the first 20 min, volume equivalent to 3 mg/kg zinc bis(histidinate) was infused, followed by 20 minute of 10 mg/kg and then 20 min of 30 mg/kg zinc bis(histidinate). Plasma was collected every 30 min following the start of anaesthesia. Zinc levels in plasma were analysed using inductively coupled plasma mass spectroscopy (ICP-MS).

[3] = Mean arterial pressure in anaesthetized rat (carotid artery catheter); type: in vivo; conditions: bolus i.v. 3, 10 and 30 mg/kg, measured for 10 minutes
Description: In vivo blood pressure and flow measurement. Rats and mice were anaesthetized by inhalation of 5% isoflurane (in O2) followed by i.p. injection of pentobarbitone in rats (60 mg/kg; TROY Laboratories, NSW, Australia, maintained by top up doses of 10-20 mg/kg i.v.) or i.p. injection of urethane (2.5 g/kg; Sigma, maintained by top up doses of 0.05-0.1 g/kg i.v.). Animals were placed on a homeostatic blanket system to maintain body temperature at 37±1° C. Lignocaine (1% s.c.) was injected for placement of a tracheotomy tube (for mechanical ventilation), carotid artery and jugular vein catheters.
All drug treatments were administered via the jugular vein catheter. Pulsatile blood pressure, mean arterial pressure (MAP) and heart rate (HR; beats/min) were measured via the carotid artery catheter filled with heparinized (10 U/ml; Pfizer, NY, USA) saline 0.9% and connected to a pressure transducer (Argon Medical Devices, Athens, Greece) and the output was recorded with LabChart 7 and a Powerlab 8SP (AD Instruments). […]
An increase in cutaneous blood flow associated with vasorelaxation typically results in a decrease in arterial pressure. Mean arterial pressure in a rat after administration of zinc bis(histidine) (3 mg/kg, 10 mg/kg or 30 mg/kg) or L-histidine (67 mg/kg) was measured by a pressure transducer attached to a catheter inserted in carotid artery as described in Example 2.

[4] = listed as Zinc bis(histidinate)

T1 sequence (Q63118 24-464): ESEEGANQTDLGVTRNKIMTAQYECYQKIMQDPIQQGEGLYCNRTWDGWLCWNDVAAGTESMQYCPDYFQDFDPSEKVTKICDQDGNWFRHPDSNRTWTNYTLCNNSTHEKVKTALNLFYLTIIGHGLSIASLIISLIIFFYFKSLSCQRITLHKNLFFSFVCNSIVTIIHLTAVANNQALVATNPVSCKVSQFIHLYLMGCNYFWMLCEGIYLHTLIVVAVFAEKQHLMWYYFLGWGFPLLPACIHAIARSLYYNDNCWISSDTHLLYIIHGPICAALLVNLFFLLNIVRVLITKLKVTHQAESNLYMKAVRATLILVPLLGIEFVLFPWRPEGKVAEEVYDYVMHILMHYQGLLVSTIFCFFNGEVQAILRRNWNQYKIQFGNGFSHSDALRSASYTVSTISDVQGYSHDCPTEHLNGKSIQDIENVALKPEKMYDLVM
T1 sequence (Q9JJ74 27-148): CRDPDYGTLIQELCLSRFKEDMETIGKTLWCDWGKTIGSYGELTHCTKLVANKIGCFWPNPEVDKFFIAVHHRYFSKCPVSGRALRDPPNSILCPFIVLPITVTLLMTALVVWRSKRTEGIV

For NCCCC[C@H](NC(=O)[C@@H](Cc1cc(Br)c(O)c(Br)c1)NC(=O)N1CCC(N2Cc3ccccc3NC2=O)CC1)C(=O)N1CCN(c2ccncc2)CC1 [BIBN4096, olcegepant], the “Effect on zinc bis(histidinate)-induced vasodilation (area under the vasodilation curve, LDF)” value (CGRP receptors) was “reduction in vasodilation; also recorded: attenuated the effect”.
For [Zn] [zinc], the “Relaxation of rat mesenteric arteries” value (rat mesenteric arteries) was “minimal effects; also recorded: little relaxation”.
In the case of zinc disulfiram, the “Relaxation of rat mesenteric arteries” value (rat mesenteric arteries) is reported as “showed relaxation”.
For C[C@H](N)[C@H](O)c1cccc(O)c1 [Metaraminol], the Systemic vascular conductance [1] is listed as “increased systemic vascular conductance”.
For CNC([S-])=NN=C(C)C(C)=NN=C([S-])NC.[Zn+2] [Zn(DTSM)], the “Relaxation of rat mesenteric arteries” value (rat mesenteric arteries) was “showed relaxation”.
For Oc1c(I)cc(Cl)c2cccnc12 [clioquinol], the “Relaxation of rat mesenteric arteries” value (rat mesenteric arteries) was “showed relaxation”.
For zinc bis(histidinate), the “Cutaneous blood flow (laser Doppler flux)” value (“Cutaneous blood flow” for short) (rat hind paw) was “increased cutaneous blood flow”, the “Cutaneous blood flow” value (rat hind paw; [4]) was “caused an increase in cutaneous blood flow” and the “Cutaneous blood flow” value (rat hind paw; listed as zinc bis(histidine)) was “increased blood flow”. The “Cerebral cortical microcirculatory perfusion” value [2] was “rescued”, the Renal blood flow [2] was “dose-dependent improvement” and the “Renal cortical microcirculatory perfusion” value [2] was “rescued”. For the same compound, the “Renal medullary microcirculatory perfusion” value [2] was “rescued”, the Renal oxygen delivery [2] was “dose-dependent improvement” and the Renal vascular resistance [2] was “dose-dependent improvement”. For the same compound, the “Systemic mean arterial pressure” value [2] was “without compromising systemic mean arterial pressure”, the “Relaxation of rat mesenteric arteries” value (rat mesenteric arteries) was “showed relaxation; also recorded: greater relaxation” and the “Relaxation of rat mesenteric arteries” value (rat mesenteric arteries; listed as zinc-bis-histidinate) was “dependent on the concentration”. For the same compound, the Mean arterial pressure [3] was “expected decrease in arterial pressure was not observed” and the Mean arterial pressure [3, 4] was “does not change mean arterial pressure”.
With N[C@@H](Cc1c[nH]cn1)C(=O)O [L-histidine, reference compound] the “Cutaneous blood flow” value (rat hind paw) was “did result in the same increase” and the “Cutaneous blood flow” value (rat hind paw; listed as L-His) was “did not cause an increase in cutaneous blood flow”.
For zinc pyrithione, the “Relaxation of rat mesenteric arteries” value (rat mesenteric arteries) was “showed relaxation”.
For N[C@@H](Cc1c[nH]cn1)C(=O)O [histidine], the “Relaxation of rat mesenteric arteries” value (rat mesenteric arteries) was “did not provide the same relaxation; also recorded: little relaxation”.

Reference: patent US20250009790A1, “METHODS FOR INDUCING VASODILATION” (THE FLOREY INSTITUTE OF NEUROSCIENCE AND MENTAL HEALTH, priority 2021, published 2025)
